Data taken from patent publication US8343934B2, “Diverse lead compound autotaxin inhibitors” (University of Memphis, priority 2009, dated 2013).
Where a SMILES comes first, the peptide text is derived from it. [ ]: non-standard residue; d: D form. Phe(4-Cl) = N[CH](Cc1ccc(Cl)cc1)C(=O)O; 3Pal = N[CH](Cc1cccnc1)C(=O)O

Target: T1, ATX (Homo sapiens, UniProt Q13822)
T1 construct: conditioned serum-free medium (CCM) from MDA-MB-435 cells as the source of ATX; endogenous in cells; host or cells: MDA-MB-435 cells (about 10x concentrated conditioned serum-free medium)
Assay: ATX inhibition assay (FS-3 substrate)
Format: biochemical
Settings: for IC50 / % ATX Acitivity (10 μM): FS-3 substrate; for % Response: preliminary screen, FS-3 hydrolysis at one hour, normalized to vehicle control, mean±S.D., same values given at 10 μM in Table 5; for % ATX Acitivity (10 μM): 10 μM compound
Experimental: ATX inhibition was assayed using the substrate FS-3 (Echelon Biosciences, Inc., Salt Lake City, Utah, USA). The FS-3 assay used ˜10 times concentrated conditioned serum-free medium (CCM) from MDA-MB-435 cells as the source of ATX, while CCM comprised one-third of the total volume. The final volume for FS-3 was comprised of the substrate at varying concentrations and 30 μM charcoal-stripped fatty acid free BSA (Sigma Aldrich) in assay buffer (1 mM each CaCl2 and MgCl2, 5 mM KCl, 140 mM NaCl, 50 mM Tris pH 8.0).
All assays were performed in 96-well plates with data read at 1 minute intervals by a Synergy2 system (BioTek, Winooski, Vt.). The fluorescence produced upon the hydrolysis of FS-3 was monitored using an excitation wavelength of 485 nm and an emission wavelength of 528 nm at 37° C. (Ferguson et al., 2006). […] All readings were normalized to vehicle control after subtraction of fluorescence in the absence of CCM. Data are shown as the mean±S.D. of at least three wells.

[1] = Calculated IC50 data for the 30 active compounds

SMILES	IC50 [1] [µM]	% Response [%]	other results
Cc1cccc(N=Nc2c(S(=O)(=O)O)cc3cc(NC(=O)Nc4ccc5c(O)c(N=Nc6ccc7cc(S(=O)(=O)O)ccc7c6)c(S(=O)(=O)O)cc5c4)ccc3c2O)c1.[Na+] [compound 65574]	12	20 ± 3.7	–
Nc1c(N=Nc2ccc([N+](=O)[O-])cc2)c(S(=O)(=O)O)cc2cc(S(=O)(=O)O)c(N=Nc3ccccc3)c(O)c12 [compound 7820]	–	110 ± 5.7	–
CC1=NN(c2ccc(/C=C/c3ccc(NC(=O)Nc4ccc(/C=C/c5ccc(N6N=C(C)C(N=Nc7ccccc7C(=O)O)C6=O)cc5S(=O)(=O)O)c(S(=O)(=O)O)c4)cc3S(=O)(=O)O)c(S(=O)(=O)O)c2)C(=O)C1N=Nc1ccccc1C(=O)O.[Na+] (stereo not drawn) [compound 34937]	–	87 ± 3.1	–
Cc1ccccc1N=Nc1ccc(N=Nc2c(S(=O)(=O)O)cc3cc(S(=O)(=O)O)c(N=Nc4ccc([N+](=O)[O-])cc4)c(N)c3c2O)c(C)c1.[Na+] [compound 65836]	–	71 ± 4.6	–
Cc1cc(S(=O)(=O)O)ccc1N=c1ccc2c(-c3ccccc3C(=O)[O-])c3ccc(Nc4ccccc4C)cc3oc-2c1.[Na+] [compound 11246]	10.2	42 ± 6.0	–
CC(=O)Nc1ccc(C=Cc2ccc(NC(=O)Nc3ccc(C=Cc4ccc(NC(C)=O)cc4S(=O)(=O)O)c(S(=O)(=O)O)c3)cc2S(=O)(=O)O)c(S(=O)(=O)O)c1 [compound 34928]	–	51 ± 6.5	–
O=C(CC(C(=O)O)S(=O)(=O)O)Nc1ccc(S(=O)(=O)c2ccc(NC(=O)CC(C(=O)O)S(=O)(=O)O)cc2)cc1.[Na+] (stereo not drawn) [compound 2460]	–	99 ± 3.1	–
CC(C)(C)OC(=O)NC(CC(Cc1ccccc1)C(=O)O)C(=O)NC(CC(Cc1ccccc1)C(=O)O)C(=O)NC(CC(Cc1ccccc1)C(=O)O)C(=O)NCC(=O)Oc1ccc([N+](=O)[O-])cc1 (stereo not drawn) [NSC 341348]	–	–	% ATX Acitivity (10 μM): 43 ± 2.8%; IC50: 2.5 µM
Nc1c(N=Nc2ccc([N+](=O)[O-])cc2)c(S(=O)(=O)O)cc2cc(S(=O)(=O)O)c(N=Nc3ccc(Sc4ccc(N=Nc5ccc(O)cc5)cc4)cc3)c(O)c12.[Na+] [compound 79723]	–	83 ± 3.2	–
O=C(N/N=C/c1ccc(O)c(S(=O)(=O)O)c1)C(=O)N/N=C/c1ccc(O)c(S(=O)(=O)O)c1.[Na+] [compound 55736]	–	95 ± 3.9	–
Cc1cc(N)ccc1N=Nc1ccc(-c2ccc(N=Nc3c(S(=O)(=O)O)cc4cc(S(=O)(=O)O)c(N=Nc5ccc([N+](=O)[O-])cc5)c(N)c4c3O)cc2)cc1.[Na+] [compound 65851]	9.5	42 ± 3.5	–
Nc1c(N=Nc2ccc([N+](=O)[O-])cc2)c(S(=O)(=O)O)cc2cc(S(=O)(=O)O)c(N=Nc3ccc(-c4ccc(N=Nc5ccc(O)cc5)cc4)cc3)c(O)c12.[Na+] [compound 47752]	–	52 ± 5.4	–
O=C(Nc1ccc2cc(S(=O)(=O)O)cc(O)c2c1)Nc1ccc2cc(S(=O)(=O)O)cc(O)c2c1 [compound 37204]	–	106 ± 60.5	–
COc1ccccc1N=Nc1c(S(=O)(=O)O)cc2cc(NC(=O)Nc3ccc4c(O)c(N=Nc5c(N)ccc6cc(S(=O)(=O)O)ccc56)c(S(=O)(=O)O)cc4c3)ccc2c1O [compound 45622]	11.6	16 ± 3.1	–
COc1cc(-c2ccc(N=Nc3c(S(=O)(=O)O)cc4cc(S(=O)(=O)O)c(N=Nc5ccc([N+](=O)[O-])cc5)c(N)c4c3O)c(OC)c2)ccc1N=Nc1ccc(N)cc1C.[Na+] [compound 79737]	–	62 ± 2.8	–
Nc1ccc2cc(S(=O)(=O)[O-])c(N=Nc3ccc(-c4ccc(N=Nc5c(S(=O)(=O)[O-])cc6cc(S(=O)(=O)[O-])c(N=Nc7cccc([N+](=O)[O-])c7)c(N)c6c5O)cc4)cc3)c(O)c2c1.[Na+].[Na+].[Na+] [compound 79744]	11.5	35 ± 2.9	–
O=C(O)c1ccc(C(=O)NCCCN(CCCCN(CCCNC(=O)c2ccc(C(=O)O)c(O)c2O)C(=O)c2ccc(C(=O)O)c(O)c2O)C(=O)c2ccc(C(=O)O)c(O)c2O)c(O)c1O.[Na+] [compound 338310]	7.96	24 ± 2.9	–
Cc1cc(C(O)(c2ccc(Nc3ccccc3)cc2)c2ccc(Nc3ccc(S(=O)(=O)O)cc3)cc2)ccc1N.[Na+] (stereo not drawn) [compound 5014]	1.27	39 ± 4.3	–
Nc1c(N=Nc2ccc([N+](=O)[O-])cc2)c(S(=O)(=O)O)cc2cc(S(=O)(=O)O)c(N=Nc3ccc(-c4ccc(N=Nc5c(S(=O)(=O)O)cc6cc(S(=O)(=O)O)c(N=Nc7ccc([N+](=O)[O-])cc7)c(N)c6c5O)cc4)cc3)c(O)c12.[Na+] [compound 65869]	22.7	46 ± 6.7	–
Nc1c(S(=O)(=O)[O-])cc2cc(S(=O)(=O)[O-])ccc2c1N=Nc1ccc(-c2ccc(N=Nc3c(N)c(S(=O)(=O)[O-])cc4cc(S(=O)(=O)[O-])ccc34)c(S(=O)(=O)[O-])c2)cc1.[Na+].[Na+].[Na+].[Na+].[Na+] [compound 11243]	12.6	49 ± 6.1	–

SMILES	IC50 [1] [µM]	% Response [%]	other results
COc1ccccc1N=Nc1c(S(=O)(=O)O)cc2cc(S(=O)(=O)O)c(N=Nc3ccc([N+](=O)[O-])cc3)c(N)c2c1O.[Na+] [compound 65829]	–	71 ± 4.0	–
O=C(Nc1ccc(C(=O)Nc2ccc3c(O)cc(S(=O)(=O)O)cc3c2)cc1)c1ccccc1.[Na+] [compound 37215]	–	79 ± 3.7	–
O=C(Nc1ccc2cc(S(=O)(=O)O)ccc2c1)c1ccc(N=Nc2c(S(=O)(=O)O)cc3cc(S(=O)(=O)O)cc(NC(=O)c4ccccc4)c3c2O)cc1.[Na+] [compound 45620]	8.85	28 ± 3.7	–
O=C1C(Cl)=C(Nc2ccc(C(=O)Nc3ccc4cc(S(=O)(=O)O)cc(S(=O)(=O)O)c4c3)cc2)C(=O)C(Cl)=C1Nc1ccc(C(=O)Nc2ccc3cc(S(=O)(=O)O)cc(S(=O)(=O)O)c3c2)cc1 [NSC 12859]	–	–	% ATX Acitivity (10 μM): 27 ± 2.8%; IC50 (Table 5): 0.805 µM
CC(=O)NS(=O)(=O)c1ccc(NC(=O)c2ccccc2C(=O)O)cc1 [compound 4368]	–	99 ± 2.8	–
Cc1[nH]n(-c2cc(S(=O)(=O)O)ccc2Cl)c(=O)c1N=Nc1c(NC(=O)c2ccc(N)cc2)ccc2cc(S(=O)(=O)O)ccc12.[Na+] [compound 75963]	–	51 ± 4.4	–
Nc1ccc(C(=O)Nc2ccc(C(=O)Nc3ccc4c(O)cc(S(=O)(=O)O)cc4c3)cc2)cc1 [compound 1741]	–	60 ± 4.6	–
O=S(=O)(O)c1cc(O)c2ccc(Nc3ccc4c(O)cc(S(=O)(=O)O)cc4c3)cc2c1 [compound 37203]	–	92 ± 9.1	–
O=C(Nc1ccc2c(O)cc(S(=O)(=O)O)cc2c1)Nc1ccc2c(O)cc(S(=O)(=O)O)cc2c1 [compound 45174]	–	89 ± 3.2	–
O=C(Nc1ccc2c(O)c(N=Nc3ccccc3)c(S(=O)(=O)O)cc2c1)Nc1ccc2c(O)c(N=Nc3ccc4cc(S(=O)(=O)O)ccc4c3)c(S(=O)(=O)O)cc2c1.[H-].[Na+] [compound 65573]	19.1	39 ± 3.8	–
Cc1ccc(C(=O)Nc2ccc(S(=O)(=O)O)c3cc(S(=O)(=O)O)cc(S(=O)(=O)O)c23)cc1NC(=O)c1cccc(NC(=O)Nc2cccc(C(=O)Nc3cc(C(=O)Nc4ccc(S(=O)(=O)O)c5cc(S(=O)(=O)O)cc(S(=O)(=O)O)c45)ccc3C)c2)c1.Cc1ccc(C)c2c1c(NCCCCCCNc1cc(C)[n+](C)c3c(C)ccc(C)c13)cc(C)[n+]2C [compound 32275]	–	94 ± 6.5	–
Nc1c(N=Nc2ccc([N+](=O)[O-])cc2)c(S(=O)(=O)O)cc2cc(S(=O)(=O)O)c(N=Nc3ccc([N+](=O)[O-])cc3)c(O)c12.[Na+] [compound 65544]	–	76 ± 5.1	–
CC(=O)NC(Cc1ccc(Cl)cc1)C(=O)NC(Cc1ccc(Cl)cc1)C(=O)NC(Cc1cccnc1)C(=O)NC(CO)C(=O)NC(Cc1ccc(O)cc1)C(=O)NC(CCCN=C(N)N)C(=O)NC(CC(C)C)C(=O)NC(CCCN=C(N)N)C(=O)N1CCCC1C(=O)NC(C)C(=O)O (stereo not drawn) [compound 373963] (Ac-[Phe(4-Cl)][Phe(4-Cl)][3Pal]SYRLRPA-OH; configuration not given here)	–	96 ± 2.5	–
Nc1ccc(N=Nc2ccc(-c3ccc(N=Nc4c(S(=O)(=O)O)cc5cc(S(=O)(=O)O)c(N=Nc6ccc([N+](=O)[O-])cc6)c(N)c5c4O)cc3)cc2)c(N)c1.[Na+] [compound 65848]	15.2	48 ± 4.8	–
O=C(NC(CSSCC(NC(=O)c1ccc([N+](=O)[O-])cc1)C(=O)O)C(=O)O)c1ccc([N+](=O)[O-])cc1 (stereo not drawn) [compound 2532]	–	95 ± 5.7	–
O=C(Nc1ccc(S(=O)(=O)c2ccc(NC(=O)Nc3ccc4cc(S(=O)(=O)O)ccc4c3)cc2)cc1)Nc1ccc2cc(S(=O)(=O)O)ccc2c1.[Na+] [compound 12149]	–	57 ± 6.5	–
O=C(/C=C\c1ccc(NCc2ccc(C(=O)O)cc2)cc1)CCl [compound 106024]	–	62 ± 2.5	–
Nc1ccc(/N=N/c2ccc(-c3ccc(/N=N/c4c(S(=O)(=O)O)cc5cc(S(=O)(=O)O)c(/N=N/c6ccc([N+](=O)[O-])cc6)c(N)c5c4O)cc3)cc2)c2ccc(S(=O)(=O)O)cc12 [NSC 77520]	–	–	% ATX Acitivity (10 μM): 32 ± 2.7%; IC50: 4.07 µM
Cc1ccc(Nc2ccc(Nc3ccc(C)cc3S(=O)(=O)[O-])c3c2C(=O)c2ccccc2C3=O)c(S(=O)(=O)[O-])c1.[Na+].[Na+] [compound 7795]	–	99 ± 5.0	–
